What was measured:
[1] = target: T1, stearoyl-CoA desaturase (SCD1) (Mus musculus, UniProt P13516); assay: SCD microsomal assay: release of 3H2O from [9,10-3H]stearoyl-CoA in mouse liver microsomes; type: biochemical; conditions: 15 min incubation at 25° C.
T1 construct: Reactions are started by adding 50 μL of microsomes (1.25 mg/mL); from tissue; host or cells: liver microsomes of male ICR outbred mice on a high-carbohydrate, low fat diet
T1 sequence (P13516 1-355): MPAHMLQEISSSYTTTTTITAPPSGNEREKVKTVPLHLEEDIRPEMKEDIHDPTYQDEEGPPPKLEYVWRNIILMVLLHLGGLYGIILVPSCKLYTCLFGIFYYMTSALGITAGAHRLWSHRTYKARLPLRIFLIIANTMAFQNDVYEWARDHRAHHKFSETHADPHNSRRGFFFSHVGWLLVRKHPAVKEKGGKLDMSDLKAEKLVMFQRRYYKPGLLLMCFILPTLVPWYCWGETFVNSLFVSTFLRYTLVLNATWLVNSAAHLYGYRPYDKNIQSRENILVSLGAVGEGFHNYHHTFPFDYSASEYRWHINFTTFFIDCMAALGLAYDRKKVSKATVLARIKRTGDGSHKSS
Source text: The identification of compounds of the invention as SCD inhibitors was readily accomplished using the SCD enzyme and microsomal assay procedure described in Shanklin J. and Summerville C., Proc. Natl. Acad. Sci. USA (1991), Vol. 88, pp. 2510-2514.
Measuring Stearoyl-CoA Desaturase Inhibition Activity of a Test Compound Using Mouse Liver Microsomes
The identification of compounds of the invention as SCD inhibitors was readily accomplished using the SCD microsomal assay procedure described in Shanklin J. and Summerville C., Proc. Natl. Acad. Sci. USA (1991), Vol. 88, pp. 2510-2514.
Male ICR outbread mice, on a high-carbohydrate, low fat diet, under light halothane (15% in mineral oil) anesthesia are sacrificed by exsanguination during periods of high enzyme activity. Livers are immediately rinsed with cold 0.9% NaCl solution, weighed and minced with scissors. All procedures are performed at 4° C. unless specified otherwise. Livers are homogenized in a solution (1/3 w/v) containing 0.25 M sucrose, 62 mM potassium phosphate buffer (pH 7.0), 0.15 M KCl, 15 mM N-acetyleysteine, 5 mM MgCl2, and 0.1 mM EDTA using 4 strokes of a Potter-Elvehjem tissue homogenizer. The homogenate is centrifuged at 10,400×g for 20 min to eliminate mitochondria and cellular debris. The supernatant is filtered through a 3-layer cheesecloth and centrifuged at 105,000×g for 60 min. The microsomal pellet is gently resuspended in the same homogenization solution with a small glass/teflon homogenizer and stored at −70° C. The absence of mitochondrial contamination is enzymatically assessed. The protein concentration is measured using bovine serum albumin as the standard.
Desaturase activity is measured as the release of ^3H2O from [9,10-^3H]stearoyl-CoA. Reactions per assay point conditions are as follows: 2 μL 1.5 mM stearoyl-CoA, 0.25 μL 1 mCi/mL ^3H stearoyl CoA, 10 μL 20 mM NADH, 36.75 μL 0.1 M PK buffer (K2HPO4/NaH2PO4, pH 7.2). The test compound or control solution is added in a 1 μL volume. Reactions are started by adding 50 μL of microsomes (1.25 mg/mL). The plates are mixed and after 15 min incubation on a heating block (25° C.), the reactions are stopped by the addition of 10 μL 60% PCA. An aliquot of 100 μL is then transferred to a filter plate pretreated with charcoal and the plate centrifuged at 4000 rpm for 1 minute. The flow through containing the ^3H2O released by the SCD1 desaturation reaction is added to scintillation fluid and the radioactivity measured in a Packard TopCount. The data is analysed to identify the IC50 for test compounds and reference compounds. […] The activity was defined in terms of % SCD enzyme activity remaining at the desired concentration of the test compound or as the IC50 concentration. The IC50 (affinity) of the example compounds toward the stearoyl-CoA desaturase is comprised between around […] and 0.0001 μM or between around 5 μM and 0.0001 μM or between around 1 μM and 0.0001 μM.

| Structure (SMILES) | IC50 [1] [nM] | melting point [°C] |
| --- | --- | --- |
| Cc1nc(N2CCN(CC3CCCCO3)C2=O)sc1C(=O)NCc1ccccc1 (stereo not shown) [Example 23.6, N-benzyl-4-methyl-2-(2-oxo-3-((tetrahydro-2H-pyran-2-yl)methyl)imidazolidin-1-yl)thiazole-5-carboxamide] | 495 |  |
| O=C(NCc1cccnc1)c1sc(N2CCN(Cc3ccc(F)cc3)C2=O)nc1C(F)(F)F [Example 26.1, 2-(3-(4-fluorobenzyl)-2-oxoimidazolidin-1-yl)-N-(pyridin-3-ylmethyl)-4-(trifluoromethyl)thiazole-5-carboxamide] | 39 | 161 to 162 |
| Cc1nc(-n2cnn(CC(=O)Nc3ccc(Cl)cc3)c2=O)sc1C(=O)NCc1cccnc1 [Example 19.10, 2-(1-(2-(4-chlorophenylamino)-2-oxoethyl)-5-oxo-1H-1,2,4-triazol-4(5H)-yl)-4-methyl-N-(pyridin-3-ylmethyl)thiazole-5-carboxamide] | 577 | 255 to 256 |
| Cc1cc(N2CCN(Cc3ccc(F)cc3)C2=O)sc1C(=O)NC1Cc2ccccc2C1 [Example 55.8, N-(2,3-dihydro-1H-inden-2-yl)-5-(3-(4-fluorobenzyl)-2-oxoimidazolidin-1-yl)-3-methylthiophene-2-carboxamide] | 27 |  |
| Cc1cc(N2CCN(Cc3ccc(F)cc3)C2=O)sc1-c1nc(Cc2ccccc2)c[nH]1 [Example 60, 1-(5-(4-benzyl-1H-imidazol-2-yl)-4-methylthiophen-2-yl)-3-(4-fluorobenzyl)imidazolidin-2-one] | 428 |  |
| Cc1nc(N2CCN(Cc3ccccn3)C2=O)sc1C(=O)NCc1cccnc1 [Example 32.8, 4-methyl-2-(2-oxo-3-(pyridin-2-ylmethyl)imidazolidin-1-yl)-N-(pyridin-3-ylmethyl)thiazole-5-carboxamide] | 267 | 58 to 61 |
| CCOC(=O)c1ccc(CN2CCN(c3nc(C)c(C(=O)NCc4ccccc4)s3)C2=O)cc1 [Example 23.2, ethyl 4-((3-(5-(benzylcarbamoyl)-4-methylthiazol-2-yl)-2-oxoimidazolidin-1-yl)methyl)benzoate] | 61 | 118 to 120 |
| Cc1nc(N2CCN(Cc3ccc(C(F)(F)F)cc3)C2=O)sc1Br [Example 45, 1-(5-bromo-4-methylthiazol-2-yl)-3-(4-(trifluoromethyl)benzyl)imidazolidin-2-one] | 459 | 107 to 108 |
| Cc1nc(N2CCN(Cc3ccccc3)C2=N)sc1C(=O)NCc1ccccc1 [Example 27.3, N-benzyl-2-(3-benzyl-2-iminoimidazolidin-1-yl)-4-methylthiazole-5-carboxamide] | 25 | 125 to 126 |
| Cc1nc(N2CCN(Cc3ccc(C(F)(F)F)cc3)C2=O)sc1-c1ccno1 [Example 38.1, 1-(5-(isoxazol-5-yl)-4-methylthiazol-2-yl)-3-(4-(trifluoromethyl)benzyl)imidazolidin-2-one] | 1240 | 153 to 154 |
| Cc1noc(-c2sc(N3CCN(Cc4ccc(C(F)(F)F)cc4)C3=O)nc2C)n1 [Example 44, 1-(4-methyl-5-(3-methyl-1,2,4-oxadiazol-5-yl)thiazol-2-yl)-3-(4-(trifluoromethyl)benzyl)imidazolidin-2-one] | 152 | 163 to 164 |
| CCN1CCN(c2nc(C)c(C(=O)NCc3cccnc3)s2)C1=O [Example 9.39, 2-(3-ethyl-2-oxoimidazolidin-1-yl)-4-methyl-N-(pyridin-3-ylmethyl)thiazole-5-carboxamide] | 124 | 163 to 164 |
| Cc1nc(-n2ccn(Cc3ccc(C(F)(F)F)cc3)c2=O)sc1C(=O)NCc1cccnc1 [Example 17.3, 4-methyl-2-(2-oxo-3-(4-(trifluoromethyl)benzyl)-2,3-dihydro-1H-imidazol-1-yl)-N-(pyridin-3-ylmethyl)thiazole-5-carboxamide] | 12 | 163 to 164 |
| Cc1nc(N2CCCN(Cc3ccc(F)cc3)C2=O)sc1C(=O)NCc1cccnc1 [Example 32.25, 2-(3-(4-fluorobenzyl)-2-oxotetrahydropyrimidin-1(2H)-yl)-4-methyl-N-(pyridin-3-ylmethyl)thiazole-5-carboxamide] |  | 48 to 50 |
| Cc1cc(-c2sc(N3CCN(Cc4ccc(C(F)(F)F)cc4)C3=O)nc2C)on1 [Example 38.3, 1-(4-methyl-5-(3-methylisoxazol-5-yl)thiazol-2-yl)-3-(4-(trifluoromethyl)benzyl)imidazolidin-2-one] |  | 201 to 203 |
| Cc1nc(-n2cnn(CCOc3ccc(F)cc3)c2=O)sc1C(=O)NCc1cccnc1 [Example 21.2, 2-(1-(2-(4-fluorophenoxy)ethyl)-5-oxo-1H-1,2,4-triazol-4(5H)-yl)-4-methyl-N-(pyridin-3-ylmethyl)thiazole-5-carboxamide] |  | 154 to 155 |
| Cc1nc(N2CCN(Cc3ccccc3)C2=N)sc1C(=O)NCc1ccc(F)cc1 [Example 27.4, 2-(3-benzyl-2-iminoimidazolidin-1-yl)-N-(4-fluorobenzyl)-4-methylthiazole-5-carboxamide] |  | 142 to 144 |
| Cc1nc(-n2cnn(CCNCc3ccc(F)cc3)c2=O)sc1C(=O)NCc1cccnc1 [Example 47, 2-(1-(2-(4-fluorobenzylamino)ethyl)-5-oxo-1H-1,2,4-triazol-4(5H)-yl)-4-methyl-N-(pyridin-3-ylmethyl)thiazole-5-carboxamide] |  | 106 to 107 |
| Cc1nc(N2CCN(Cc3ccc(F)cc3)C2=O)sc1C(N)=O [Example 32.18, 2-(3-(4-fluorobenzyl)-2-oxoimidazolidin-1-yl)-4-methylthiazole-5-carboxamide] |  | 201 to 203 |
| Cc1nc(-n2cnn(Cc3ccc(F)cc3)c2=O)sc1C(=O)NCc1ncco1 [Example 21.8, 2-(1-(4-fluorobenzyl)-5-oxo-1H-1,2,4-triazol-4(5H)-yl)-4-methyl-N-(oxazol-2-ylmethyl)thiazole-5-carboxamide] |  | 152 to 153 |
| Cc1csc(N2CCN(Cc3ccc(C(F)(F)F)cc3)C2=O)n1 [Example 5.14, 1-(4-methylthiazol-2-yl)-3-(4-(trifluoromethyl)benzyl)imidazolidin-2-one] |  | 102 to 103 |

From patent US8293768B2, “Organic compounds” (Novartis AG, priority 2006, dated 2012)
